In the assay the test system is PDC tumor spheroids with HUVEC/MSC, viability. As to the kind of experiment: Anticancer human tumor 439559-082-T-J2-PDC patient-derived colon adenocarcinoma cell line growth inhibition [TAK]. As to conditions: for viability, T/C: stronger effect = lower value; for IC50: curve of compound. The method, boiled down:
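Spheroids of 60% malignant cells, 25% HUVEC and 15% hMSC were exposed to targeted agents combined with TAK-243 or ipatasertib. Concentrations started at or near clinical Cmax (10 microM if unknown) and descended in half-log steps.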

Values joined by “and” are separate entries in the source; they are usually repeats but may differ in a detail not shown here. Identical values can stand only once.

As a reminder, the viability, T/C is the result in the treated group divided by that in the control group, in per cent. As usually defined, the IC50 is the midpoint of a concentration-inhibition curve.
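Note: spheroids exposed to drugs for seven days before readout.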

For the compound `CC(=O)Nc1cccc(-n2c(=O)n(C3CC3)c(=O)c3c(Nc4ccc(I)cc4F)n(C)c(=O)c(C)c32)c1`, the IC50 was > 0.03 µM. Besides, for the setting “compound 94.9 pM”, the viability, T/C is 105% and 111%. Moreover, the viability, T/C (compound 0.0003 µM) was 101% and 94.9%. The viability, T/C (compound 0.000949 µM) is 91% and 88.8%. The viability, T/C (compound 0.003 µM) was 73.6% and 75.2%. For the same compound, the viability, T/C (compound 0.00949 µM) is 72.6% and 75.3%. For the same compound, for the setting “compound 0.03 µM”, the viability, T/C is 63.9% and 60.4%.
In the case of `CC(C)(C)c1nc(-c2cccc(NS(=O)(=O)c3c(F)cccc3F)c2F)c(-c2ccnc(N)n2)s1`, the IC50 was > 10 µM. Also, the viability, T/C (compound 0.0316 µM) is 114% and 120%. Besides, the viability, T/C (compound 0.1 µM) was 109%. Besides, the viability, T/C (compound 0.316 µM) was 118% and 108%. Also, under “compound 1 µM”, the viability, T/C is 108% and 104%. In addition, the viability, T/C (compound 3.16 µM) is 120% and 102%. Further, the viability, T/C (compound 10 µM) was 101% and 98%.

The values above are taken from PubChem BioAssay AID2060356 (Molecular Pharmacology Branch, DTP, NCI, 2025).
